Drawing on PubChem BioAssay AID200 (DTP/NCI, 2004), this text covers T/C for 17 compounds.

Where “and” joins values, the source holds several entries; their conditions need not be identical. Equal values may be shown once. Toxic doses and inconclusive results are not listed.

The test concerns B6C3F1 mice, B16 melanoma ip, median survival T/C. The test can be described thus: NCI In Vivo Anticancer Drug Screen. Data for tumor model B16 Melanoma (intraperitoneal) in B6C3F1 mice. As to conditions: endpoint: median survival time, higher = longer survival. Put shortly:
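Mice bearing transplanted tumor were dosed with compound or vehicle, and survival was recorded. Activity is expressed as the treated-group measurement (T) divided by the vehicle control measurement (C).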

[1] abbreviates: dose: 6.25 mg/kg/injection, schedule: Q01DX009 (ip), vehicle: saline with Tween-80.
The mark [2] stands for this setting: dose: 12.5 mg/kg/injection, schedule: Q01DX009 (ip), vehicle: saline with Tween-80.
Setting [3] is: dose: 6.25 mg/kg/injection, schedule: Q01DX009 (ip), vehicle: Klucel (hydroxypropylcellulose) (HPC).
Setting [4] is: dose: 12.5 mg/kg/injection, schedule: Q01DX009 (ip), vehicle: Klucel (hydroxypropylcellulose) (HPC).
The mark [5] stands for this setting: dose: 25.0 mg/kg/injection, schedule: Q01DX009 (ip), vehicle: Klucel (hydroxypropylcellulose) (HPC).
Where [6] appears, read: dose: 50.0 mg/kg/injection, schedule: Q01DX009 (ip), vehicle: Klucel (hydroxypropylcellulose) (HPC).
The mark [7] stands for this setting: dose: 12.0 mg/kg/injection, schedule: Q01DX009 (ip), vehicle: Klucel (hydroxypropylcellulose) (HPC).
Where [8] appears, read: dose: 25.0 mg/kg/injection, schedule: Q01DX009 (ip), vehicle: saline with Tween-80.
[9] abbreviates: dose: 50.0 mg/kg/injection, schedule: Q01DX009 (ip), vehicle: saline with Tween-80.
Setting [10] is: dose: 100.0 mg/kg/injection, schedule: Q01DX009 (ip), vehicle: Klucel (hydroxypropylcellulose) (HPC).

For the compound `COc1cccc2c1C(=O)c1c(O)c3c(c(O)c1C2=O)C[C@@](O)(C(=O)CO)C[C@@H]3OC1CC(N2CCOCC2C#N)C(O)C(C)O1` (some centres not stated), the T/C is, setting by setting: (dose: 9.38 micrograms/kg/injection, schedule: Q01DX001 (ip), vehicle: water) 156 % of control; (dose: 18.75 micrograms/kg/injection, schedule: Q01DX001 (ip), vehicle: water) 153 % of control; (dose: 37.5 micrograms/kg/injection, schedule: Q01DX001 (ip), vehicle: water) 156 % of control.
For `CC[n+]1ccc2c(C)c3[nH]c4ccc(O)cc4c3c(C)c2c1`, the T/C is 110 % of control and 114 % of control (dose: 0.39 mg/kg/injection, schedule: Q01DX009 (ip), vehicle: saline); 122 % of control (dose: 0.78 mg/kg/injection, schedule: Q01DX009 (ip), vehicle: saline); 123 % of control (dose: 1.56 mg/kg/injection, schedule: Q01DX009 (ip), vehicle: saline).
For `CN=C(N)NCCCCCCCCNC(N)=NC`, the T/C reads like this: under setting [1], 102 % of control; under setting [2], 98 % of control.
For the compound `O=S(CCCl)CCCl`, the T/C is 96 % of control and 107 % of control under setting [3]; 98 % of control and 101 % of control under setting [4]; 98 % of control and 107 % of control under setting [5]; 89 % of control and 96 % of control under setting [6].
`COc1cccc2c1C(=O)c1c(O)c3c(c(O)c1C2=O)C[C@@](O)(C(C)=O)C[C@@H]3OC1CC(N2CCOCC2)C(O)C(C)O1` (some centres not stated): the T/C by setting is: (dose: 0.06 mg/kg/injection, schedule: Q01DX001 (ip), vehicle: water) 120 % of control; (dose: 0.12 mg/kg/injection, schedule: Q01DX001 (ip), vehicle: water) 123 % of control; (dose: 62.5 micrograms/kg/injection, schedule: Q01DX001 (ip), vehicle: water) 113 % of control; (dose: 125.0 micrograms/kg/injection, schedule: Q01DX001 (ip), vehicle: water) 122 % of control.
For the compound `O=C(Nc1ccc([N+](=O)[O-])cc1)Nc1nncs1`, the T/C (dose: 25.0 mg/kg/injection, schedule: Q01DX009 (ip), vehicle: distilled water + Tween-80) is 122 % of control and 103 % of control; the T/C (dose: 50.0 mg/kg/injection, schedule: Q01DX009 (ip), vehicle: distilled water + Tween-80) was 112 % of control and 113 % of control; the T/C (dose: 200.0 mg/kg/injection, schedule: Q01DX009 (ip), vehicle: distilled water + Tween-80) is 120 % of control.
As to `C=C1C(C)C2C(Cc3ccccc3)NC(=O)C23C(OC(C)=O)/C=C/C(C)(O)CC(C)C/C=C/C3C1O` (configuration not stated), the T/C was 112 % of control and 99 % of control (dose: 0.37 mg/kg/injection, schedule: Q01DX009 (ip), vehicle: Klucel (hydroxypropylcellulose) (HPC)); 110 % of control and 100 % of control and 101 % of control (dose: 0.75 mg/kg/injection, schedule: Q01DX009 (ip), vehicle: Klucel (hydroxypropylcellulose) (HPC)); 115 % of control and 98 % of control and 103 % of control (dose: 1.5 mg/kg/injection, schedule: Q01DX009 (ip), vehicle: Klucel (hydroxypropylcellulose) (HPC)); 124 % of control (dose: 1.56 mg/kg/injection, schedule: Q01DX009 (ip), vehicle: saline with Tween-80); 112 % of control and 115 % of control and 105 % of control (dose: 3.0 mg/kg/injection, schedule: Q01DX009 (ip), vehicle: Klucel (hydroxypropylcellulose) (HPC)); 111 % of control (dose: 3.13 mg/kg/injection, schedule: Q01DX009 (ip), vehicle: saline with Tween-80). In addition, the T/C is 103 % of control (dose: 6.0 mg/kg/injection, schedule: Q01DX009 (ip), vehicle: Klucel (hydroxypropylcellulose) (HPC)); 113 % of control under setting [1]; 103 % of control under setting [7].
For the compound `COc1c2occc2c(N=NN(C)C)c2ccc(=O)oc12`, the T/C under setting [1] is 98 % of control, the T/C under setting [2] is 99 % of control, the T/C under setting [8] was 104 % of control and the T/C under setting [9] is 107 % of control.
`COc1cccc2c1C(=O)c1c(O)c3c(c(O)c1C2=O)C[C@@](O)(C(=O)CO)C[C@@H]3OC1CC(N)CC(C)O1` (some centres not stated): the T/C was 174 % of control (dose: 0.18 mg/kg/injection, schedule: Q01DX009 (ip), vehicle: water); 231 % of control (dose: 0.37 mg/kg/injection, schedule: Q01DX009 (ip), vehicle: water); 175 % of control (dose: 0.38 mg/kg/injection, schedule: Q01DX009 (ip), vehicle: water); 187 % of control and 238 % of control (dose: 0.75 mg/kg/injection, schedule: Q01DX009 (ip), vehicle: water); 181 % of control and 187 % of control (dose: 1.5 mg/kg/injection, schedule: Q01DX009 (ip), vehicle: water).
For the compound `CN1N=C(N)c2cn(C3OC(COP(=O)(O)O)C(O)C3O)c3ncnc1c23` (configuration not stated), the T/C by setting is: under setting [7], 93 % of control; under setting [5], 93 % of control; under setting [6], 96 % of control; under setting [10], 91 % of control.
Regarding `CC(Cc1ccc(O)cc1)NCC(O)c1ccc(O)c(O)c1` (configuration not stated), the T/C was 97 % of control under setting [2]; 92 % of control under setting [8]; 100 % of control under setting [9]; 101 % of control (dose: 100.0 mg/kg/injection, schedule: Q01DX009 (ip), vehicle: saline with Tween-80); 101 % of control (dose: 200.0 mg/kg/injection, schedule: Q01DX009 (ip), vehicle: saline with Tween-80); 111 % of control (dose: 400.0 mg/kg/injection, schedule: Q01DX009 (ip), vehicle: saline with Tween-80).
Take `CC(C)(C)OC(=O)NC(CCCCNC(=O)C(F)(F)F)C(=O)O` (configuration not stated): the T/C was 109 % of control under setting [3]; 99 % of control under setting [4]; 89 % of control and 99 % of control under setting [5]; 88 % of control and 96 % of control under setting [6]; 96 % of control under setting [10].
Consider `CN=C(N)c1ccc(N=C(N)c2ccc(C(N)=Nc3ccc(C(N)=NC)cc3)cc2)cc1`, for which the T/C runs as follows: (dose: 7.5 mg/kg/injection, schedule: Q01DX009 (ip), vehicle: saline) 95 % of control; (dose: 15.0 mg/kg/injection, schedule: Q01DX009 (ip), vehicle: saline) 89 % of control.
As to `CC(=O)OCC1OC([S-])C(OC(C)=O)C(OC(C)=O)C1OC(C)=O.CC[PH+](CC)CC.CC[PH+](CC)CC.[Au].[Au]` (configuration not stated), the T/C (dose: 0.62 mg/kg/injection, schedule: Q01DX009 (ip), vehicle: Klucel (hydroxypropylcellulose) (HPC)) is 110 % of control and 105 % of control; the T/C (dose: 1.25 mg/kg/injection, schedule: Q01DX009 (ip), vehicle: Klucel (hydroxypropylcellulose) (HPC)) was 109 % of control; the T/C (dose: 2.5 mg/kg/injection, schedule: Q01DX009 (ip), vehicle: Klucel (hydroxypropylcellulose) (HPC)) was 98 % of control and 103 % of control; the T/C (dose: 5.0 mg/kg/injection, schedule: Q01DX009 (ip), vehicle: Klucel (hydroxypropylcellulose) (HPC)) is 114 % of control and 97 % of control; the T/C (dose: 10.0 mg/kg/injection, schedule: Q01DX009 (ip), vehicle: Klucel (hydroxypropylcellulose) (HPC)) is 92 % of control.
Consider `OCC[N+]12CN3CN(CN(C3)C1)C2`, for which the T/C is, setting by setting: (dose: 25.0 mg/kg/injection, schedule: Q01DX009 (ip), vehicle: saline) 101 % of control; (dose: 50.0 mg/kg/injection, schedule: Q01DX009 (ip), vehicle: saline) 109 % of control; (dose: 100.0 mg/kg/injection, schedule: Q01DX009 (ip), vehicle: saline) 103 % of control; (dose: 200.0 mg/kg/injection, schedule: Q01DX009 (ip), vehicle: saline) 108 % of control; (dose: 400.0 mg/kg/injection, schedule: Q01DX009 (ip), vehicle: saline) 108 % of control.
As for `CC(C)(C)OC(=O)NC(CCCCNC(=O)OCc1ccccc1)C(=O)O` (configuration not stated), the T/C (dose: 25.0 mg/kg/injection, schedule: Q01DX009 (ip), vehicle: distilled water + Tween-80 + alcohol) is 111 % of control and the T/C (dose: 50.0 mg/kg/injection, schedule: Q01DX009 (ip), vehicle: distilled water + Tween-80 + alcohol) is 96 % of control.
With `CN1CCc2c(c3ccccc3c3ccccc23)C1`, the T/C runs as follows: (dose: 3.12 mg/kg/injection, schedule: Q01DX009 (ip), vehicle: Klucel (hydroxypropylcellulose) (HPC)) 116 % of control and 94 % of control; under setting [3], 87 % of control and 99 % of control; under setting [4], 88 % of control and 102 % of control and 106 % of control; under setting [5], 90 % of control and 102 % of control; under setting [6], 116 % of control and 97 % of control and 102 % of control; under setting [10], 118 % of control and 92 % of control.
